Results as given in the Kinase Knowledgebase extract (Sharma et al. 2016).

Biological target: PIK3CG (human) (UniProt P48736)
Test: Assessment of PIK3CG Kinase Activity

PIK3CG (human), sequence (P48736 whole entry, looked up): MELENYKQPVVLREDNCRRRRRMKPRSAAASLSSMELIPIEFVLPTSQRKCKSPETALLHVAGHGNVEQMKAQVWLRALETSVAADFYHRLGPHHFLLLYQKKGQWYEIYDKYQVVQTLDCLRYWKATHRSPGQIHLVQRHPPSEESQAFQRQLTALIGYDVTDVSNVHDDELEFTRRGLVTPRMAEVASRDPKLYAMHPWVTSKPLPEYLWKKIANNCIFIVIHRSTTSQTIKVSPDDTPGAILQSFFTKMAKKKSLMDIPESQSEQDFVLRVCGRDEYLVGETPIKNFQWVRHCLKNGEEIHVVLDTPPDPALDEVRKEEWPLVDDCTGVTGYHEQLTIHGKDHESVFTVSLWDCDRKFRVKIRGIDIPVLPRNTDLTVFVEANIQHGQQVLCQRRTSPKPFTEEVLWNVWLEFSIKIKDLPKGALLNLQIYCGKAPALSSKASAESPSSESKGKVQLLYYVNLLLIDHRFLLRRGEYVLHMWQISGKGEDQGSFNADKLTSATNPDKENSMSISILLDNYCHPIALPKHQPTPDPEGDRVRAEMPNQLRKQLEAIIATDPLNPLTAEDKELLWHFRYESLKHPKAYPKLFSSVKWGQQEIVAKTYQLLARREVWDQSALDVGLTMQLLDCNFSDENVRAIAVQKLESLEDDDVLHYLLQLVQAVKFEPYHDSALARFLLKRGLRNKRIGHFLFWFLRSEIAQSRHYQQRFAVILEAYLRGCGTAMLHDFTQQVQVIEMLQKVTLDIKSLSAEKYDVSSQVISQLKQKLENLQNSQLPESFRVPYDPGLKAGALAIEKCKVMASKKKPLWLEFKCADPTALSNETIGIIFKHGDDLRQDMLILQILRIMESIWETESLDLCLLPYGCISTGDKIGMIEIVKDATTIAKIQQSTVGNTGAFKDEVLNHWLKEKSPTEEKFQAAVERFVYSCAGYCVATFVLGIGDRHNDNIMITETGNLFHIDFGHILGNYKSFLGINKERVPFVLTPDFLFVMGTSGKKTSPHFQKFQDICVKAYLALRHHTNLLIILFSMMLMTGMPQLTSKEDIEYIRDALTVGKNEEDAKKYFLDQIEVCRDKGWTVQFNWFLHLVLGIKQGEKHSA

Row | Compound | IC50 [nM]
1 | CCn1cnc(CCNC(=O)Nc2nc3c(s2)-c2nc(-c4ccccc4Br)ncc2CC3)c1 | < 800
2 | O=C(Nc1nc2c(s1)-c1nc(-c3ccccc3Cl)ncc1CC2)N1CC[C@@H](NC(=O)N2CCOCC2)C1 | < 800
3 | CC(C)NC(=O)Nc1nc2c(s1)-c1nc(-c3ccccc3Cl)ncc1CC2 | < 800
4 | NC(=O)Nc1nc2c(s1)-c1nc(-c3ccccc3Cl)ncc1CC2 | < 800
5 | CS(=O)(=O)c1cccc(CNC(=O)Nc2nc3c(s2)-c2nc(-c4ccccc4Cl)ncc2CC3)c1 | < 800
6 | O=C(NC[C@@H]1CCCN1C(=O)OCc1ccccc1)Nc1nc2c(s1)-c1nc(-c3ccccc3Cl)ncc1CC2 | < 800
7 | CN(Cc1cccc(CNC(=O)Nc2nc3c(s2)-c2nc(-c4ccccc4Cl)ncc2CC3)c1)C(=O)OC(C)(C)C | < 800
8 | O=C(NC[C@@H]1CCCN1)Nc1nc2c(s1)-c1nc(-c3ccccc3Cl)ncc1CC2 | < 800
9 | O=C(NCCc1ccc2c(c1)OCCO2)Nc1nc2c(s1)-c1nc(-c3ccccc3Cl)ncc1CC2 | < 800
10 | O=C(NCCc1ccccn1)Nc1nc2c(s1)-c1nc(-c3ccccc3Cl)ncc1CC2 | < 800
11 | O=C(NCc1ccc2cc[nH]c2c1)Nc1nc2c(s1)-c1nc(-c3ccccc3Cl)ncc1CC2 | < 800
12 | O=C(CCNC(=O)Nc1nc2c(s1)-c1nc(-c3ccccc3Cl)ncc1CC2)NC1CC1 | < 800
13 | CN(C)S(=O)(=O)Nc1cccc(CNC(=O)Nc2nc3c(s2)-c2nc(-c4ccccc4Cl)ncc2CC3)c1 | < 800
14 | O=C(NCc1cc(C2CC2)n[nH]1)Nc1nc2c(s1)-c1nc(-c3ccccc3Br)ncc1CC2 | < 800
15 | Cn1cccc1CCNC(=O)Nc1nc2c(s1)-c1nc(-c3ccccc3Cl)ncc1CC2 | < 800
16 | O=C(N[C@H]1CCN(C(=O)Nc2nc3c(s2)-c2nc(-c4ccccc4Cl)ncc2CC3)C1)C1CC1 | < 800
17 | CC(C)(C)OC(=O)N1CCC[C@@H]1CNC(=O)Nc1nc2c(s1)-c1nc(-c3ccccc3Cl)ncc1CC2 | < 800
18 | CC(C)(C)OC(=O)N1CCC(CNC(=O)Nc2nc3c(s2)-c2nc(-c4ccccc4Cl)ncc2CC3)CC1 | < 800
19 | CN(C)C(=O)Nc1nc2c(s1)-c1nc(-c3ccccc3Cl)ncc1CC2 | < 800
20 | CC(=O)NC1CCN(C(=O)Nc2nc3c(s2)-c2nc(-c4ccccc4Cl)ncc2CC3)C1 (configuration not stated) | < 800
21 | O=C(Nc1nc2c(s1)-c1nc(-c3ccccc3Cl)ncc1CC2)N1CC[C@H](NS(=O)(=O)N2CCCC2)C1 | < 800
22 | O=C(Nc1nc2c(s1)-c1nc(-c3ccccc3Cl)ncc1CC2)N1CCC(N2Cc3ccccc3NC2=O)C1 (configuration not stated) | < 800
23 | Cc1ccc(CN2CC(CNC(=O)Nc3nc4c(s3)-c3nc(-c5ccccc5Cl)ncc3CC4)CC2=O)cc1 (configuration not stated) | < 800

Row | Compound | IC50 [nM]
24 | COc1cccc([C@@H](C)NC(=O)Nc2nc3c(s2)-c2nc(-c4ccccc4Cl)ncc2CC3)c1 | < 800
25 | CC(C)c1nnc(CCNC(=O)Nc2nc3c(s2)-c2nc(-c4ccccc4C(F)(F)F)ncc2CC3)o1 | < 800
26 | CN(C)CCN(C)C(=O)Nc1nc2c(s1)-c1nc(-c3ccccc3Cl)ncc1CC2 | < 800
27 | CC(C)OC(=O)N[C@@H]1CCN(C(=O)Nc2nc3c(s2)-c2nc(-c4ccccc4Cl)ncc2CC3)C1 | < 800
28 | O=C(NCc1nnn[nH]1)Nc1nc2c(s1)-c1nc(-c3ccccc3Cl)ncc1CC2 | < 800
29 | CN1CCN(C(=O)N[C@H]2CCN(C(=O)Nc3nc4c(s3)-c3nc(-c5ccccc5Cl)ncc3CC4)C2)CC1 | < 800
30 | O=C(Nc1nc2c(s1)-c1nc(-c3ccccc3Cl)ncc1CC2)NC1CC1 | < 800
31 | O=C(O)[C@H]1[C@H](c2ccccc2)CCN1C(=O)Nc1nc2c(s1)-c1nc(-c3ccccc3Cl)ncc1CC2 | < 800
32 | O=C(NCCc1cn[nH]c1)Nc1nc2c(s1)-c1nc(-c3ccccc3Cl)ncc1CC2 | < 800
33 | O=C(NCCCN1CCNC1=O)Nc1nc2c(s1)-c1nc(-c3ccccc3Cl)ncc1CC2 | < 800
34 | O=C(CCNC(=O)Nc1nc2c(s1)-c1nc(-c3ccccc3Cl)ncc1CC2)NCC1CC1 | < 800
35 | COc1ccc(CCNC(=O)Nc2nc3c(s2)-c2nc(-c4ccccc4Cl)ncc2CC3)cc1OC | < 800
36 | CC(C)CNC(=O)c1cccc(CNC(=O)Nc2nc3c(s2)-c2nc(-c4ccccc4Cl)ncc2CC3)c1 | < 800
37 | CNC(=O)Nc1nc2c(s1)-c1nc(-c3ccccc3Br)ncc1CC2 | < 800
38 | CCNC(=O)Nc1nc2c(s1)-c1nc(-c3ccccc3F)ncc1CC2 | < 800
39 | CC(C)OCCCNC(=O)Nc1nc2c(s1)-c1nc(-c3ccccc3Cl)ncc1CC2 | < 800
40 | O=C(Nc1ccc(N2CCNCC2)cc1)Nc1nc2c(s1)-c1nc(-c3ccccc3Cl)ncc1CC2 | < 800
41 | CCc1csc(CCNC(=O)Nc2nc3c(s2)-c2nc(-c4ccccc4C(F)(F)F)ncc2CC3)n1 | < 800
42 | CCC(=O)N[C@H]1CCN(C(=O)Nc2nc3c(s2)-c2nc(-c4ccccc4Cl)ncc2CC3)C1 | < 800
43 | CC(C)OCCNC(=O)Nc1nc2c(s1)-c1nc(-c3ccccc3Cl)ncc1CC2 | < 800
44 | O=C(Nc1nc2c(s1)-c1nc(-c3ccccc3Cl)ncc1CC2)N1CC[C@H](NC(=O)C(F)(F)F)C1 | < 800
45 | Nc1cccc(CNC(=O)Nc2nc3c(s2)-c2nc(-c4ccccc4Cl)ncc2CC3)c1 | < 800
46 | CC1(C)C(c2ccccc2)CCN1C(=O)Nc1nc2c(s1)-c1nc(-c3ccccc3Cl)ncc1CC2 (configuration not stated) | < 800

Row | Compound | IC50 [nM]
47 | CC(C)C(=O)N[C@H]1CCN(C(=O)Nc2nc3c(s2)-c2nc(-c4ccccc4Cl)ncc2CC3)C1 | < 800
48 | CC(C)NC(=O)Nc1cccc(CNC(=O)Nc2nc3c(s2)-c2nc(-c4ccccc4Cl)ncc2CC3)c1 | < 800
49 | CC(C)c1nnc(CCNC(=O)Nc2nc3c(s2)-c2nc(-c4ccccc4Cl)ncc2CC3)o1 | < 800
50 | CN(C)CCCNC(=O)Nc1nc2c(s1)-c1nc(-c3ccccc3Cl)ncc1CC2 | < 800
51 | CC(C)NC(=O)c1cccc(CNC(=O)Nc2nc3c(s2)-c2nc(-c4ccccc4Cl)ncc2CC3)c1 | < 800
52 | CC(C)N(C)C(=O)N[C@H]1CCN(C(=O)Nc2nc3c(s2)-c2nc(-c4ccccc4Cl)ncc2CC3)C1 | < 800
53 | CC(C)CNC(=O)N[C@H]1CCN(C(=O)Nc2nc3c(s2)-c2nc(-c4ccccc4Cl)ncc2CC3)C1 | < 800
54 | COc1ccccc1C1CCN(C(=O)Nc2nc3c(s2)-c2nc(-c4ccccc4Cl)ncc2CC3)C1 (configuration not stated) | < 800
55 | Cn1cc(CNC(=O)Nc2nc3c(s2)-c2nc(-c4ccccc4F)ncc2CC3)cn1 | < 800
56 | COCCN(C)C(=O)N[C@H]1CCN(C(=O)Nc2nc3c(s2)-c2nc(-c4ccccc4Cl)ncc2CC3)C1 | < 800
57 | O=C(NCCC(=O)N1CCCC1)Nc1nc2c(s1)-c1nc(-c3ccccc3Cl)ncc1CC2 | < 800
58 | O=C(NCc1cc(C2CC2)n[nH]1)Nc1nc2c(s1)-c1nc(-c3ccccc3C(F)(F)F)ncc1CC2 | < 800
59 | CN(C)CC(=O)N[C@H]1CCN(C(=O)Nc2nc3c(s2)-c2nc(-c4ccccc4Cl)ncc2CC3)C1 | < 800
60 | CCc1csc(CCNC(=O)Nc2nc3c(s2)-c2nc(-c4ccccc4Br)ncc2CC3)n1 | < 800
61 | Cn1cc(CCNC(=O)Nc2nc3c(s2)-c2nc(-c4ccccc4Cl)ncc2CC3)cn1 | < 800
62 | CCNC(=O)Nc1nc2c(s1)-c1nc(-c3ccccc3Br)ncc1CC2 | < 800
63 | CNC(=O)Nc1nc2c(s1)-c1nc(-c3ccccc3F)ncc1CC2 | < 800
64 | COCCCNC(=O)Nc1nc2c(s1)-c1nc(-c3ccccc3Cl)ncc1CC2 | < 800
65 | O=C(NCc1ccc(CN2CCNC2=O)cc1)Nc1nc2c(s1)-c1nc(-c3ccccc3Cl)ncc1CC2 | < 800
66 | Cc1cccc(CNC(=O)Nc2nc3c(s2)-c2nc(-c4ccccc4Cl)ncc2CC3)c1 | < 800
67 | CC(C)(C)OC(=O)CCNC(=O)Nc1nc2c(s1)-c1nc(-c3ccccc3Br)ncc1CC2 | < 800
68 | O=C(NCc1cccc(NC(=O)C2CC2)c1)Nc1nc2c(s1)-c1nc(-c3ccccc3Cl)ncc1CC2 | < 800
69 | O=C(Nc1nc2c(s1)-c1nc(-c3ccccc3Cl)ncc1CC2)NC1CCC1 | < 800

Row | Compound | IC50 [nM]
70 | CC(C)c1nnc(CCNC(=O)Nc2nc3c(s2)-c2nc(-c4ccccc4Br)ncc2CC3)o1 | < 800
71 | CCOCCNC(=O)Nc1nc2c(s1)-c1nc(-c3ccccc3Cl)ncc1CC2 | < 800
72 | CCCn1cnc(CCNC(=O)Nc2nc3c(s2)-c2nc(-c4ccccc4Cl)ncc2CC3)c1 | < 800
73 | O=C(Nc1nc2c(s1)-c1nc(-c3ccccc3Cl)ncc1CC2)N1CCCC1 | < 800
74 | CC(C)CN(C)C(=O)CCNC(=O)Nc1nc2c(s1)-c1nc(-c3ccccc3Cl)ncc1CC2 | < 800
75 | O=C(Nc1nc2c(s1)-c1nc(-c3cccc(F)c3Cl)ncc1CC2)NC1CC1 | < 800
76 | COCCNC(=O)CCNC(=O)Nc1nc2c(s1)-c1nc(-c3ccccc3Cl)ncc1CC2 | < 800
77 | CCOC(=O)CCNC(=O)Nc1nc2c(s1)-c1nc(-c3ccccc3Cl)ncc1CC2 | < 800
78 | CC(C)(C)OC(=O)N1CCCC(CNC(=O)Nc2nc3c(s2)-c2nc(-c4ccccc4Cl)ncc2CC3)C1 (configuration not stated) | < 800
79 | CC(C)CC(=O)N[C@@H]1CCN(C(=O)Nc2nc3c(s2)-c2nc(-c4ccccc4Cl)ncc2CC3)C1 | < 800
80 | O=C(NCC1CCCN(c2ncccn2)C1)Nc1nc2c(s1)-c1nc(-c3ccccc3Cl)ncc1CC2 (configuration not stated) | < 800
81 | CC(C)(C)OCCNC(=O)Nc1nc2c(s1)-c1nc(-c3ccccc3Cl)ncc1CC2 | < 800
82 | O=C(NCc1cccc(C(=O)NC2CCCCC2)c1)Nc1nc2c(s1)-c1nc(-c3ccccc3Cl)ncc1CC2 | < 800
83 | O=C(NCCN1CCCC1)Nc1nc2c(s1)-c1nc(-c3ccccc3Cl)ncc1CC2 | < 800
84 | Cn1cc(CNC(=O)Nc2nc3c(s2)-c2nc(-c4ccccc4Cl)ncc2CC3)cn1 | < 800
85 | CC(=O)NCC1CCCN(C(=O)Nc2nc3c(s2)-c2nc(-c4ccccc4Cl)ncc2CC3)C1 (configuration not stated) | < 800
86 | CC(C)(C)OC(=O)CCNC(=O)Nc1nc2c(s1)-c1nc(C(C)(C)C)ncc1CC2 | < 800
87 | O=C(N[C@H]1CCN(C(=O)Nc2nc3c(s2)-c2nc(-c4ccccc4Cl)ncc2CC3)C1)C(F)F | < 800
88 | CC(C)(C)c1cc(CNC(=O)Nc2nc3c(s2)-c2nc(-c4ccccc4Cl)ncc2CC3)[nH]n1 | < 800
89 | CC(C)CNC(=O)Nc1nc2c(s1)-c1nc(-c3cccc(F)c3Cl)ncc1CC2 | < 800
90 | NC(=O)Nc1nc2c(s1)-c1nc(-c3ccccc3F)ncc1CC2 | < 800
91 | COC(=O)N[C@H]1CCN(C(=O)Nc2nc3c(s2)-c2nc(-c4ccccc4Cl)ncc2CC3)C1 | < 800
92 | CC(C)COC(=O)N[C@@H]1CCN(C(=O)Nc2nc3c(s2)-c2nc(-c4ccccc4Cl)ncc2CC3)C1 | < 800
